Assays:
Settings in all cases: in vivo
[1] = (§1) Half life in rat; format: ADME, organism-based
[2] = Oral bioavailability in rat; format: ADME, organism-based
[3] = Cmax in squirrel monkey at 10 mg/kg; format: ADME, organism-based, Saimiri sciureus; parameters: dose 10 mg/kg
[4] = Cmax in squirrel monkey at 3 mg/kg; format: ADME, organism-based, Saimiri sciureus; parameters: dose 3 mg/kg
Rattus norvegicus = organism: Rattus norvegicus; assay: as §1; format: ADME, organism-based

CC(C)(c1cc(-c2cccc(-c3ccc[n+]([O-])c3)c2)c2ncccc2c1)S(C)(=O)=O
half-life [1]: 1.2 h | bioavailability [2]: 76%

Cc1ccc(-c2cccc(-c3cc(C(C)(C)S(C)(=O)=O)cc4cccnc34)c2)c[n+]1[O-]
half-life [1]: 1.2 h | bioavailability [2]: 83%

CC(C)(c1cc(-c2cccc(-c3ccc(CO)[n+]([O-])c3)c2)c2ncccc2c1)S(C)(=O)=O
half-life [1]: 1.7 h | bioavailability [2]: 10%

CC(C)NC(=O)Nc1ccc(-c2cccc(-c3cc(C(C)(C)S(C)(=O)=O)cc4cccnc34)c2)c[n+]1[O-]
half-life [1]: 0.7 h | bioavailability [2]: 11%

CC(=O)Nc1ccc(-c2cccc(-c3cc(C(C)(C)S(C)(=O)=O)cc4cccnc34)c2)c[n+]1[O-]
half-life [1]: 0.2 h | bioavailability [2]: 47%

CC(C)(O)c1cc(-c2cccc(-c3cc(C(C)(C)S(C)(=O)=O)cc4cccnc34)c2)c[n+]([O-])c1
half-life [1]: < 1 h | bioavailability [2]: 0%

CC(C)(c1cc(-c2cccc(-c3cc(C(=O)NC4CC4)c[n+]([O-])c3)c2)c2ncccc2c1)S(C)(=O)=O
half-life [1]: < 1 h | bioavailability [2]: 0%

CC(C)(c1cc(-c2cccc(-c3ccc(C(=O)O)cc3)c2)c2ncccc2c1)S(C)(=O)=O
half-life [1]: 2 h | bioavailability [2]: 54%

CC(C)(c1cc(-c2cccc(-c3ccc(CCC(=O)O)cc3)c2)c2ncccc2c1)S(C)(=O)=O
half-life [1]: 1 h | bioavailability [2]: 24%

CC(C)(CC(=O)O)c1ccc(-c2cccc(-c3cc(C(C)(C)S(C)(=O)=O)cc4cccnc34)c2)cc1
half-life [1]: 2 h | bioavailability [2]: 100%

Cc1noc(/C(=C/c2cccc(-c3cc(C(C)(C)S(C)(=O)=O)cc4cccnc34)c2)c2ccc(S(C)(=O)=O)cc2)n1
Cmax [3]: 3.8 µM

CC(C)(c1cc(-c2cccc(-c3ccc(C(=O)NC4CC4)[n+]([O-])c3)c2)c2ncccc2c1)S(C)(=O)=O
half-life [1]: 6.5 h | bioavailability [2]: 100%

CC(C)(c1cc(-c2cccc(-c3ccc(CC(=O)O)cc3)c2)c2ncccc2c1)S(C)(=O)=O
half-life [1]: 0.3 h | bioavailability [2]: 60%

CC(C)(O)c1ccc(-c2cccc(-c3cc(C(C)(C)S(C)(=O)=O)cc4cccnc34)c2)c[n+]1[O-]
half-life [1]: 1.5 h | Cmax [4]: 41 µM | bioavailability [2]: 100%

CC(C)(c1cc(-c2cccc(-c3ccc(C4CC4C(=O)O)cc3)c2)c2ncccc2c1)S(C)(=O)=O (single isomer, unassigned)
Cmax [3]: 65 µM | half-life [1]: 2 h | bioavailability [2]: 100%

CC(C)(c1cc(-c2cccc(-c3ccc(C4CC4C(=O)O)cc3)c2)c2ncccc2c1)S(C)(=O)=O (single isomer, unassigned; enantiomer A)
t1/2 (Rattus norvegicus): 2 h

From ChEMBL document CHEMBL1141472, “Design, synthesis, and biological evaluation of 8-biarylquinolines: a novel class of PDE4 inhibitors” (Bioorg Med Chem Lett, 2008)
